# Test results as given in the supplement of paper PMC10307832.
# Tests used:
# Experiment in all cases: relative viability (nuclei count vs DMSO), 5 days (fraction); higher = more cells survive
# Shikonin + Foretinib = compound: CC(C)=CC[C@@H](O)C1=CC(=O)c2c(O)ccc(O)c2C1=O [Shikonin] + COc1cc2c(Oc3ccc(NC(=O)C4(C(=O)Nc5ccc(F)cc5)CC4)cc3F)ccnc2cc1OCCCN1CCOCC1 [Foretinib] (partner 0.25 µM)
# How it was run: (§1)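 Relative viability divides the nuclei count in treated wells by that in vehicle wells. Lung cancer cell lines were seeded in 1536-well plates, dosed by pin tool the next day, and fixed and stained after 5 days in one step with final 0.05% Triton X-100, 1% formaldehyde and 1 ug/ml Hoechst. Dosing was a single drug or a fixed anchor-drug dose plus five library-drug doses (not always all listed) in √10 steps, and values are medians of duplicate plates imaged at 4×.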
# Shikonin + Crizotinib = compound: CC(C)=CC[C@@H](O)C1=CC(=O)c2c(O)ccc(O)c2C1=O [Shikonin] + C[C@@H](Oc1cc(-c2cnn(C3CCNCC3)c2)cnc1N)c1c(Cl)ccc(F)c1Cl [Crizotinib] (partner 1 µM)
# How it was run: as §1
# [1] = compound: CC(C)N(CCCNC(=O)Nc1ccc(C(C)(C)C)cc1)C[C@H]1O[C@@H](n2ccc3c(N)ncnc32)[C@H](O)[C@@H]1O + CC(=O)Nc1cccc(-n2c(=O)n(C3CC3)c(=O)c3c(Nc4ccc(I)cc4F)n(C)c(=O)c(C)c32)c1 [Trametinib] (partner 0.02 µM)
# How it was run: as §1
# [2] = compound: CC(C)N(CCCNC(=O)Nc1ccc(C(C)(C)C)cc1)C[C@H]1O[C@@H](n2ccc3c(N)ncnc32)[C@H](O)[C@@H]1O + CS(=O)(=O)N1CCN(Cc2cc3nc(-c4cccc5[nH]ncc45)nc(N4CCOCC4)c3s2)CC1 [Pictilisib] (partner 1 µM)
# How it was run: as §1
Cell Line,relative viability (Shikonin + Foretinib; first compound 0.01 µM),relative viability (Shikonin + Foretinib; first compound 0.1 µM),relative viability (Shikonin + Foretinib; first compound 0.3162 µM),relative viability (Shikonin + Foretinib; first compound 1 µM),relative viability (Shikonin + Crizotinib; first compound 0.01 µM),relative viability (Shikonin + Crizotinib; first compound 0.1 µM),relative viability (Shikonin + Crizotinib; first compound 0.3162 µM),relative viability (Shikonin + Crizotinib; first compound 1 µM),relative viability ([1]; first compound 0.08 µM),relative viability ([1]; first compound 0.253 µM),relative viability ([1]; first compound 0.8 µM),relative viability ([1]; first compound 2.53 µM),relative viability ([1]; first compound 8 µM),relative viability ([2]; first compound 0.08 µM),relative viability ([2]; first compound 0.253 µM),relative viability ([2]; first compound 2.53 µM),relative viability ([2]; first compound 8 µM),relative viability ([2]; first compound 0.8 µM)
NCI-H1650,1.18,1.07,0.985,1.32,1.06,0.993,1.06,0.691,0.686,0.521,0.219,0.645,0.441,0.55,0.52,0.56,0.624,–
BEN,0.576,0.744,0.839,0.848,0.952,0.974,0.975,0.998,1.01,0.92,0.96,1.26,1.08,0.606,0.497,0.588,0.586,0.586
EMC-BAC-2,0.993,1.05,1.16,0.972,0.771,0.715,0.815,0.866,0.895,0.851,0.965,0.854,0.819,0.601,0.49,0.522,0.502,0.581
LU99A,0.854,0.815,0.797,0.744,0.545,0.688,0.599,0.465,0.509,0.44,0.519,0.504,0.508,0.332,0.287,0.369,0.312,0.411
ABC-1,1.14,0.993,0.927,1.04,1.72,1.15,1.13,0.531,–,–,–,–,–,0.623,0.71,0.828,0.701,–
NCI-H2170,1.03,0.88,1.06,1.02,1.5,1.07,1.29,1.25,0.965,0.912,0.862,0.866,0.914,0.36,0.262,0.372,0.323,0.336
NCI-H1299,1.08,1.15,1.09,1.09,0.958,1.09,0.965,0.922,–,–,–,–,–,0.944,0.834,0.76,0.726,0.912
EBC-1,0.0907,0.107,0.11,0.112,0.165,0.224,0.216,0.201,–,–,–,–,–,0.334,0.386,0.399,0.347,0.338
NCI-H2405,1.06,1.08,1.15,1.03,0.854,0.819,0.935,0.852,0.669,0.591,0.598,0.765,0.644,0.506,–,0.46,0.429,0.358
NCI-H2009,1.24,1.37,1.31,1.06,1.07,1.2,0.972,0.45,0.272,0.244,0.301,0.255,0.296,0.817,0.663,0.976,0.854,0.826
